Measurements taken from ChEMBL document CHEMBL5325422, “Design and synthesis of fascaplysin derivatives as inhibitors of FtsZ with potent antibacterial activity and mechanistic study” (Eur J Med Chem, 2023).
Calls of active or inactive are those of the source. The calls are words filed in the database; no cut-off is given here.

Tests used:
Staphylococcus aureus [1] = assay: Antibacterial activity against methicillin-resistant Staphylococcus aureus ATCC43300 assessed as bacterial growth inhibition incubated for 18 to 24 hrs by microbroth dilution method; assay type: functional; details: time 18-24 hrs
Escherichia coli = assay: Antibacterial activity against penicillin-susceptible Escherichia coli ATCC25922 assessed as bacterial growth inhibition incubated for 18 to 24 hrs by microbroth dilution method; assay type: functional; details: time 18-24 hrs
Streptococcus pneumoniae = assay: Antibacterial activity against Streptococcus pneumoniae ATCC49619 assessed as bacterial growth inhibition incubated for 18 to 24 hrs by microbroth dilution method; assay type: functional; details: time 18-24 hrs
Bacillus subtilis [2] = assay: Antibacterial activity against Bacillus subtilis BNCC336690 assessed as bacterial growth inhibition incubated for 18 to 24 hrs by microbroth dilution method; assay type: functional; details: time 18-24 hrs
[3] = biological target: T1, Cell division protein FtsZ (Escherichia coli K-12) (UniProt P0A9A6); assay: Inhibition of recombinant Escherichia coli FtsZ expressed in Escherichia coli BL21 assessed as induction of FtsZ polymerization incubated for 10 mins by light scattering assay; details: dose 1-4 µg/ml
T1 sequence (whole entry): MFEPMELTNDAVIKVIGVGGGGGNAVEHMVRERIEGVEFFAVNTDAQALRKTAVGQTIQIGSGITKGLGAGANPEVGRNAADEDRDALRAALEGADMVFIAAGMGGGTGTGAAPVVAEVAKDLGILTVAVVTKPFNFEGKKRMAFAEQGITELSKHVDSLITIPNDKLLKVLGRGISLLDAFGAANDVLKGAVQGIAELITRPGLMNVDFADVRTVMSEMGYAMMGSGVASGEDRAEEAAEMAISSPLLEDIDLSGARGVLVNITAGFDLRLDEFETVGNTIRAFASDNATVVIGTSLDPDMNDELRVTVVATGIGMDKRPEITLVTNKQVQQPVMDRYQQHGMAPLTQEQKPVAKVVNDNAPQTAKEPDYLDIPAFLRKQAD

Staphylococcus aureus [4] = assay: Antibacterial activity against methicillin-resistant Staphylococcus aureus ATCC43300 assessed as filamentation on cell surface at 4 times MIC incubated for 2 hrs by SEM analysis; assay type: functional, organism-based
[5] = Cytotoxicity against mouse RAW264.7 cells assessed as cell survival at 12.5 ug/ml incubated for 24 hrs by CCK8 assay relative to control; assay type: toxicity, cell-based; details: at 12.5 µg/mL, read-out: Activity
[6] = Cytotoxicity against mouse RAW264.7 cells assessed as cell survival at 50 ug/ml incubated for 24 hrs by CCK8 assay relative to control; assay type: toxicity, cell-based; details: at 50 µg/mL, read-out: Activity
Bacillus subtilis [7] = assay: Antibacterial activity against Bacillus subtilis BNCC336690 assessed as increase in cell length at 0.5 times MIC incubated for 4 hrs by microscopic analysis; assay type: functional, organism-based
Staphylococcus aureus [8] = assay: Antibacterial activity against methicillin-resistant Staphylococcus aureus ATCC43300 assessed as log10 CFU reduction at MIC measured for 1 hr by time-killing assay; assay type: functional
Staphylococcus aureus [9] = assay: Antibacterial activity against methicillin-resistant Staphylococcus aureus ATCC43300 assessed as wrinkling cell surface at 4 times MIC incubated for 2 hrs by SEM analysis; assay type: functional, organism-based
[10] = Hemolytic activity in human erythrocytes assessed as release of hemoglobin level at 12.5 ug/ml incubated for 1 hr by absorbance based assay relative to control; assay type: toxicity, cell-based, Erythrocyte; details: at 12.5 µg/mL, read-out: Activity
Staphylococcus aureus [11] = assay: Antibacterial activity against drug-resistant Staphylococcus aureus ATCC43300 assessed as inhibition of resistance development at 0.5 times MIC after 25 passages incubated for 18 to 24 hrs by microbroth dilution method; assay type: functional, organism-based; details: time 18-24 hrs
[12] = biological target: T1, Cell division protein FtsZ (Escherichia coli K-12); assay: Inhibition of recombinant Escherichia coli FtsZ expressed in Escherichia coli BL21 assessed as bundling of FtsZ filaments at 4 ug/ml incubated for 10 mins by TEM analysis; details: dose 4.0 µg/ml
[13] = biological target: T1, Cell division protein FtsZ (Escherichia coli K-12); assay: Inhibition of recombinant Escherichia coli FtsZ expressed in Escherichia coli BL21 assessed as reduction in GTPase activity incubated for 30 mins by malachite green phosphate staining based assay; details: dose 0.02-0.64 µg/ml
Staphylococcus aureus [14] = assay: Antibacterial activity against methicillin-resistant Staphylococcus aureus ATCC43300 assessed as log10 CFU reduction at 2 to 4 times MIC measured for 0.5 hrs by time-killing assay; assay type: functional
[15] = Cytotoxicity against mouse RAW264.7 cells assessed as cell survival at 25 ug/ml incubated for 24 hrs by CCK8 assay relative to control; assay type: toxicity, cell-based; details: at 25 µg/mL, read-out: Activity
RAW264.7 = assay: Cytotoxicity against mouse RAW264.7 cells >12.5 ug/ml incubated for 24 hrs by CCK8 assay; assay type: toxicity, cell-based; details: raw264.7, 24 h, dose > 12.5 µg/ml
Staphylococcus aureus [16] = assay: Antibacterial activity against methicillin-resistant Staphylococcus aureus ATCC43300 assessed as bacterial count reduction at 2 times MIC measured after 10 hrs by time-killing assay; assay type: functional, organism-based
Staphylococcus aureus [17] = assay: Antibacterial activity against methicillin-resistant Staphylococcus aureus ATCC43300 assessed as log10 CFU reduction at 1 to 4 times MIC measured for 1 hr by time-killing assay; assay type: functional
Staphylococcus aureus [18] = assay: Inhibition of biofilm formation in methicillin-resistant Staphylococcus aureus ATCC43300 at 0.024 ug/ml incubated for 24 hrs by crystal violet staining based assay relative to control; assay type: functional
Staphylococcus aureus [19] = assay: Inhibition of biofilm formation in methicillin-resistant Staphylococcus aureus ATCC43300 at 0.049 ug/ml incubated for 24 hrs by crystal violet staining based assay relative to control; assay type: functional
[20] = biological target: T1, Cell division protein FtsZ (Escherichia coli K-12); assay: Inhibition of recombinant Escherichia coli FtsZ expressed in Escherichia coli BL21 assessed as induction of FtsZ polymerization at 4 ug/ml incubated for 10 mins by light scattering assay; details: dose 4.0 µg/ml
Staphylococcus aureus [21] = assay: Inhibition of biofilm formation in methicillin-resistant Staphylococcus aureus ATCC43300 incubated for 24 hrs by crystal violet staining based assay; assay type: functional, organism-based; details: dose 0.012-12.5 µg/ml
Staphylococcus aureus [22] = assay: Inhibition of biofilm formation in methicillin-resistant Staphylococcus aureus ATCC43300 at 0.012 ug/ml incubated for 24 hrs by crystal violet staining based assay relative to control; assay type: functional

For `O=C(NC1CCCCC1)c1ccc2[nH]c3c4[n+](ccc3c2c1)-c1ccccc1C4=O.[Br-]`, the MIC (Staphylococcus aureus [1]) was 0.78 µg/mL, the MIC (Escherichia coli) was > 200 µg/mL and the MIC (Streptococcus pneumoniae) was 0.78 µg/mL. The MIC (Bacillus subtilis [2]) was 0.78 µg/mL.
For `COc1cccc(NC(=O)c2ccc3[nH]c4c5[n+](ccc4c3c2)-c2ccccc2C5=O)c1.[Br-]`, the MIC (Staphylococcus aureus [1]) was 0.39 µg/mL, the MIC (Escherichia coli) was > 200 µg/mL and the MIC (Streptococcus pneumoniae) was 0.39 µg/mL. The MIC (Bacillus subtilis [2]) was 0.195 µg/mL.
With `COc1ccccc1NC(=O)c1ccc2[nH]c3c4[n+](ccc3c2c1)-c1ccccc1C4=O.[Br-]` the MIC (Staphylococcus aureus [1]) was 0.049 µg/mL, the inhibition [3] was “Dose-Dependent Effect” and the Activity (Staphylococcus aureus [4]) was “Active”. For the same molecule, the viability at 24 h, 12.5 ug/ml [5] was 14.6%, the viability at 24 h, 50 ug/ml [6] was 13.2% and the Activity (Bacillus subtilis [7]) was “Active”. For the same molecule, the Activity (Staphylococcus aureus [8]) was 2 log10CFU/ml, the Activity (Staphylococcus aureus [9]) was “Active” and the hemolysis at 1 h, 12.5 ug/ml [10] was 0%. For the same molecule, the inhibition (Staphylococcus aureus [11]) was “inactive”, the MIC (Escherichia coli) was > 200 µg/mL and the inhibition [12] was “Active”. For the same molecule, the inhibition [13] was “Dose-Dependent Effect”, the MIC (Streptococcus pneumoniae) was 0.049 µg/mL and the Activity (Staphylococcus aureus [14]) was 2 log10CFU/ml. The viability at 24 h, 25 ug/ml [15] was 12.8%, the MIC (Bacillus subtilis [2]) was 0.024 µg/mL and the Activity (RAW264.7) was “Toxic”.
For `CCCCNC(=O)c1ccc2[nH]c3c4[n+](ccc3c2c1)-c1ccccc1C4=O.[Br-]`, the MIC (Staphylococcus aureus [1]) was 6.25 µg/mL, the MIC (Escherichia coli) was > 200 µg/mL and the MIC (Streptococcus pneumoniae) was 3.12 µg/mL. It also gave an MIC (Bacillus subtilis [2]) of 3.12 µg/mL.
For `CN[C@H](CC(C)C)C(=O)N[C@H]1C(=O)N[C@@H](CC(N)=O)C(=O)N[C@H]2C(=O)N[C@H]3C(=O)N[C@H](C(=O)N[C@H](C(=O)O)c4cc(O)cc(O)c4-c4cc3ccc4O)[C@H](O)c3ccc(c(Cl)c3)Oc3cc2cc(c3O[C@@H]2O[C@H](CO)[C@@H](O)[C@H](O)[C@H]2O[C@H]2C[C@](C)(N)[C@H](O)[C@H](C)O2)Oc2ccc(cc2Cl)[C@H]1O` [VANCOMYCIN], the Activity (Staphylococcus aureus [16]) was “inactive” and the MIC (Escherichia coli) was > 200 µg/mL.
For `Cc1ccc(NC(=O)c2ccc3[nH]c4c5[n+](ccc4c3c2)-c2ccccc2C5=O)cc1.[Br-]`, the MIC (Staphylococcus aureus [1]) was 0.78 µg/mL, the MIC (Escherichia coli) was > 200 µg/mL and the MIC (Streptococcus pneumoniae) was 0.39 µg/mL. The MIC (Bacillus subtilis [2]) was 0.195 µg/mL.
For `CCCCCCc1ccc(NC(=O)c2ccc3[nH]c4c5[n+](ccc4c3c2)-c2ccccc2C5=O)cc1.[Br-]`, the MIC (Staphylococcus aureus [1]) was 25 µg/mL, the MIC (Escherichia coli) was > 200 µg/mL and the MIC (Streptococcus pneumoniae) was 6.25 µg/mL. It also gave an MIC (Bacillus subtilis [2]) of 0.78 µg/mL.
Work on `CCCCCCCCNC(=O)c1ccc2[nH]c3c4[n+](ccc3c2c1)-c1ccccc1C4=O.[Br-]` yielded an MIC (Staphylococcus aureus [1]) of 0.098 µg/mL, an Activity (Staphylococcus aureus [17]) of 2 log10CFU/ml and an inhibition at 0.024 µg/mL (Staphylococcus aureus [18]) of ~42.7%. The inhibition [3] was “Dose-Dependent Effect”, the Activity (Staphylococcus aureus [4]) was “Active” and the inhibition at 0.049 µg/mL (Staphylococcus aureus [19]) was 82.6%. The viability at 24 h, 12.5 ug/ml [5] was 103%, the inhibition [20] was “Active” and the viability at 24 h, 50 ug/ml [6] was 73.3%. For the same molecule, the Activity (Bacillus subtilis [7]) was “Active”, the inhibition (Staphylococcus aureus [21]) was “Dose-Dependent Effect” and the Activity (Staphylococcus aureus [9]) was “Active”. The hemolysis at 1 h, 12.5 ug/ml [10] was 0%, the inhibition (Staphylococcus aureus [11]) was “inactive” and the MIC (Escherichia coli) was > 200 µg/mL. For the same molecule, the inhibition [12] was “Active”, the inhibition [13] was “Dose-Dependent Effect” and the inhibition at 0.012 µg/mL (Staphylococcus aureus [22]) was ~11.9%. For the same molecule, the MIC (Streptococcus pneumoniae) was 0.39 µg/mL, the viability at 24 h, 25 ug/ml [15] was 84.1% and the MIC (Bacillus subtilis [2]) was 0.098 µg/mL.
With `CC(C)c1ccc(NC(=O)c2ccc3[nH]c4c5[n+](ccc4c3c2)-c2ccccc2C5=O)cc1.[Br-]` the MIC (Staphylococcus aureus [1]) was 0.195 µg/mL, the MIC (Escherichia coli) was > 200 µg/mL and the MIC (Streptococcus pneumoniae) was 0.049 µg/mL. It also gave an MIC (Bacillus subtilis [2]) of 0.049 µg/mL.
